What was measured:
[1] = tested on: TGF-β cytokine released from Aspc1 cells; test: ELISA of TGF-β cytokine concentration in Aspc1 culture media; type: cell-based; conditions: 50 ng/ml TGF-β plus peptide, 48 hours, FIG. 6
Method: Specifically, the pancreatic cancer cell line Aspc1 was seeded in a 96-well plate at a density of 2×10^4 cells/well, cultured for one day, and then treated with 50 ng/ml of TGF-β or TGF-β plus inhibitor (candidate peptide and control peptide) for 48 hours, and then the concentrations of the TGF-β cytokine in the cancer cell culture media were analyzed by ELISA technique using a TGF-β detection ELISA kit. The concentration of the extracellularly released TGF-β cytokine was determined by measuring the absorbance with a multiplate reader, and the results were graphed.

pSmad2/3 in Aspc1 cells = test: Western blotting of pSmad2/3 expression level in Aspc1 cells; type: cell-based; conditions: TGF-β plus candidate peptide, 24 hours, FIG. 7
Method: Specifically, in order to analyze the time-dependent expression of phospho-Smad2/3 in cells by Western blotting assay, each of pancreatic cancer cell lines Bxpc3 and Aspc1 was treated with TGF-β cytokine at 50 ng/ml, and then cells obtained at different times were lysed by adding a cell lysis buffer containing a protease inhibitor (Thermo Scientific), and then sampled, thus preparing samples for Western blotting. Each of the samples was electrophoresed on SDS-PAGE gel, transferred to nitrocellulose membranes, and then blocked using skim milk powder. […] Then, the membranes were visualized by chemiluminescence using a Western ECL substrate (Thermo Scientific), and the obtained luminescence images were analyzed with Chemidoc (BioRad).
Specifically, each of the pancreatic cancer cell lines Aspc1, Bxpc3 and Panc1 was seeded in a 6-well plate at a density of 1×10^6 cells/well and cultured for one day. The next day, the cells were treated with TGF-β or TGF-β plus candidate peptide for 24 hours (control: 15% ACN—candidate peptide solvent, DMSO—P144 peptide solvent, P144), and the expression levels of pSmad2/3 and total Smad2/3 were analyzed by the Western blotting method described in Example 2.

Row | Sequence | inhibition of extracellular release of TGF-β cytokine [1] | inhibition of expression level of pSmad2/3 (pSmad2/3 in Aspc1 cells)
1 | FCLGPCPYIWCLDTVLSL (P7) [candidate peptide derived from TGF-β, target TGFβRI/II] | directly inhibited the extracellular release of TGF-β cytokine | –
2 | TIVYYVVIKPKVEQ (P14) [candidate peptide derived from TGF-β, target TGFβRII] | directly inhibited the extracellular release of TGF-β cytokine | –
3 | FCLGPCPYIWCLDTF (P5) [candidate peptide derived from TGF-β, target TGFβRI/II] | directly inhibited the extracellular release of TGF-β cytokine | –
4 | FCLGPCPYIWSLDTVLSL (P6) [candidate peptide derived from TGF-β, target TGFβRI/II] | directly inhibited the extracellular release of TGF-β cytokine | best ability to inhibit the expression level of pSmad2/3
